Measured values: patent publication EP0362382A1, “METHOD OF STERILIZING PLANT POLLEN” (VSESOJUZNY NAUCHNO-ISSLEDOVATELSKY INST. SELSKOKHOZYAISTV. …, priority 1988, dated 1989)

Tests used:
Tritikale = test: Field test of gametocidal activity (sterilisation of anthers), triticale; type: in vivo; conditions: V. Periode der Organogenese, 1,5%ige wäßrige Emulsion
Source text: (§1) Die gametozide Aktivitat der erfindungsgemäßen Sterilisationsmittel war im Feldversuch in verschiedenen bodenklimatischen Zonen mit Teilstücken von 10 m^2 Größe in drei- bis viermaliger Wiederholung festgestellt. Jedes Sterilisationsmittel wurde mindenstens 5 Jahre lang geprüft.
(§2) Die Entwicklung der Perioden der Organogenese wird zytologisch überwacht. Die Behandlung von Pflanzen mit dem Sterilisationsmittel erfolgt am Anfang der fünften Periode der Organogenese nach Kupermann.
Mit dem Ährenschieben verwirklicht man die Isolierung von Hauptähren und anderen Stockwerken in Pergamentbeuteln. Bei Weizen und Tritikale werden Einzelisolatoren benutzt. Bei Roggen schließt man je Ähre 5 bis 7 verschiedene nebeneinander befindliche Pflanzen unter einen gemeinsamen Isolator ein. Bei Hierse wird jede Rispe getrennt isoliert. Der Sterilitätsprozentsatz (X) für Weizen, Roggen, Tritikale und Hirse wird nach der Formel [formula] ermittelt.
Die Kornzahl in nicht isolierten Ähren von Kontrollpflanzen wird bedingt für 100 % Ansetzen bei freier Bestäubung angenommen.
Um zuverlässige Angaben zu erhalten, verwendet man 20 bis 25 Isolatoren jeder Wiederholung für Weizen und Tritikale, 10 .bis 15 Isolatoren jeder Wiederholung für Roggen und Hirse.
Pflanzen von Tritikale PRAG 109 werden in der V. Periode der Organogenese (nach Kupermann) mit 1,5%iger wäßriger Emulsion von Bis(di-n-butyläther) der δ, δ' -Thiodivaleriansäure, 4-Kaxboxybutyldezylsulfid, Bis(2-Äthylhexyläther) der δ, δ' -Thiodivaleriansäure behandelt. Die Emulsion enthält 0,1 Masse% Kalziumalkylbenzolsulfonat mit 12 bis 14 Kohlenstoffatomen und 0,01 Masse% Tetrahydrofuran. Der Verbrauch an Präparat beträgt 15 kg/ha. Als Kontrolle dienen Pflanzen, behandelt mit einem Verdünner ohne Sterilisationsmittel. Die Prüfergebnisse sind in der Tabelle 12 angegeben. […] Periode der Organogenese erhalten.
Pflanzen von Tritikale der Sorte Amphidiploid 206 werden in der V. Periode der Organogenese (nach Kupermann) mit 1,5%iger wäßriger Emulsion von Natriumsalz der δ, δ'-Thiodivaleriansäure, δ, δ' -Sulfonyldivaleriansäure Kaliumsalz der d , δ' -Sulfonyldivaleriansäure behandelt. Die Emulsion enthalt 0,1 Masse% Kalziumalkylbenzolsulfonat mit 12 bis 14 Kohlenstoffatomen und 0,01 Masse% Dodezylsulfat. Der Verbrauch an Präparat beträgt 9 kg/ha. Als Kontrolle dienen Pflanzen, behandelt mit einem Verdünner ohne Sterilisationsmittel. Die Prüfergebnisse sind in der Tabelle 13 angegeben. […] Periode der Organogenese erhalten.

Sonnenblume = test: Field test of chemical sterilisation of sunflower pollen; type: in vivo; conditions: V. Periode der Organogenese
Source text: as §1, §2
Zur Kontrolle der chemischen Sterilisation des Sonnenblumenpollens werden für jede Verbindung 45 behandelte Pflanzen jeder Wiederholung benutzt, wobei 15 Pflanzen von denen zwecks Selbsbestäubung isoliert werden, Blütenkorbchen anderer 15 Pflanzen mit einem Pollengemisch, gesammelt von 20 bis 25 behandelten isolierten Körbchen, bestäubt werden, und 15 Pflanzen für freie Bestäubung gelassen werden, damit das Ansetzen von Achänen mit dem Pollen der väterlichen Form kontrolliert werden kann.
Man beurteilt die Pollensterilität von Pflanzen der Sonnenblume nach der Pollenfertilität und -keimfähigkeit, nach den morphologischen Besonderheiten von Spermien und nach der Fähigkeit von Achänen zum Ansetzen bei der Bestäubung der behandelten isolierten Pflanzen mit dem Pollen der unbehandelten väterlichen Form. Die Lebensfähigkeit der Eizelle wird nach der Samenbildung von behandelten Pflanzen bei freier Bestäubung mit der väterlichen Form bestimmt.
Man behandelt die Sonnenblume Sorte BHNNMK 8931 (WNIIMK 8931) in der V. Periode der Organogenese mit 0,5%iger wäßriger Emulsion von 4-Karboxybutyldezylsulfid, mit 1%iger Emulsion der δ, δ' -Sulfonyldivaleriansäure, 2%iger Emulsion von Bis(2-äthylhexyläther) der δ, δ' -Thiodivaleriansäure; die Sonnenblume der Linie BK-373 (WK-373) mit 2%iger Emulsion von Bis(2-äthylhexyläther) der δ δ' --Thiodivaleriansäure, mit 0,2%iger Emulsion von Bis(di--n-butyläther) der δ, δ' -Thiodivaleriansäure; die Sonnenblume der Linie BK=364 (WK-365) mit 2%iger wäßriger Emulsion von Bis(2-äthylhexyläther) der δ, δ' -Thirodivaleriansäure, mit 0,2%iger Emulsion von Bis(di-n-butyläther) der δ, δ' -Thiodivaleriansäure. Die Emulsion enthält 0,1 Masse% Kalziumalkylbenzolsulfonat mit 12 bis 14 Kohlenstoffatomen und 0,01 Masse% Dimethylsulfoxid. Als Kontrolle dienen Pflanzen, behandelt mit einem Verdünner ohne Sterilisationsmittel. Die Prüfergebnisse sind in der Tabelle 17 angegeben. […] Periode der Organogenese erhalten.

Toxicity in animal test = conditions: rat, in vivo; für Ratten
Procedure: Alle erfindungsgemäßen Thiokarbonsäuren oder ihre De- rivate, die als Sterilisationsmittel zur Verwendung kommen, waren auf die Toxizität im Tierversuch geprüft. Die Prüfergebnisse haben gezeigt, daß die angegebenen Verbindungen von schwacher oder mittlerer Toxizität sind. So beträgt beispielsweise LD50 mehr als 2000 mg/kg für Ratten bei Bis (2-äthylhexyläther) der δ, δ'-Thiodivaleriansäure, bei anderen Verbindungen liegen die LD50 -Werte auf dem gleichen Niveau.

[1] = Sorte Amphidiploid 206, 9 kg/ha
[2] = Sorte ВНИИМК 8931 (WNIIMK 8931), Beispiel 75: 0,5%ige, 76: 1%ige, 77: 2%ige Emulsion
[3] = Linie BK-373 (WK-373), Beispiel 78: 2%ige, 79: 0,2%ige Emulsion
[4] = Linie BK-364 (WK-364), Beispiel 80: 2%ige, 81: 0,2%ige Emulsion

## CCCCOC(=O)CCCCSCCCCC(=O)OCCCC [Beispiel 59, Bis(di-n-butyläther) der δ, δ' -Thiodivaleriansäure]
Tritikale; PRAG 109, 15 kg/ha
  Anzahl von Körnern der Ähre bei freier Bestäubung: 40,1
  Anzahl von Körnern der Ähre im Isolator: 0,3
  Prozentsatz der Sterilität: 99,3%
  Prozentsatz des Ansetzens von Körnern bei freier Bestäubung: 87,6%

## CCCCCCCCCCSCCCCC(=O)O [Beispiel 60, 4-Kaxboxybutyldezylsulfid]
Tritikale; PRAG 109, 15 kg/ha
  Anzahl von Körnern der Ähre bei freier Bestäubung: 42,3
  Anzahl von Körnern der Ähre im Isolator: 0,0
  Prozentsatz der Sterilität: 100,0%
  Prozentsatz des Ansetzens von Körnern bei freier Bestäubung: 92,4%

## CCCCC(CC)COC(=O)CCCCSCCCCC(=O)OCC(CC)CCCC (stereo not drawn) [Beispiel 61, Bis(2-Äthylhexyläther) der δ, δ' -Thiodivaleriansäure]
Tritikale; PRAG 109, 15 kg/ha
  Anzahl von Körnern der Ähre bei freier Bestäubung: 40,8
  Anzahl von Körnern der Ähre im Isolator: 0,0
  Prozentsatz der Sterilität: 100,0%
  Prozentsatz des Ansetzens von Körnern bei freier Bestäubung: 89,1%

## O=C(O)CCCCSCCCCC(=O)O [Beispiel 62, Natriumsalz der δ, δ'-Thiodivaleriansäure]
Tritikale; [1]
  Anzahl von Körnern der Ähre bei freier Bestäubung: 32,5
  Anzahl von Körnern der Ähre im Isolator: 0,9
  Prozentsatz der Sterilität: 97,2%
  Prozentsatz des Ansetzens von Körnern bei freier Bestäubung: 88,8%

## O=C(O)CCCCS(=O)(=O)CCCCC(=O)O [Beispiel 63, δ, δ' -Sulfonyldivaleriansäure]
Tritikale; [1]
  Anzahl von Körnern der Ähre bei freier Bestäubung: 30,1
  Anzahl von Körnern der Ähre im Isolator: 0,1
  Prozentsatz der Sterilität: 99,7%
  Prozentsatz des Ansetzens von Körnern bei freier Bestäubung: 82,2%

## O=C(O)CCCCS(=O)(=O)CCCCC(=O)O [Beispiel 64, Kaliumsalz der d , δ' -Sulfonyldivaleriansäure]
Tritikale; [1]
  Anzahl von Körnern der Ähre bei freier Bestäubung: 29,8
  Anzahl von Körnern der Ähre im Isolator: 0,0
  Prozentsatz der Sterilität: 100,0%
  Prozentsatz des Ansetzens von Körnern bei freier Bestäubung: 81,4%

## CCCCCCCCCCSCCCCC(=O)O [Beispiel 75, 4-Karboxybutyldezylsulfid]
Sonnenblume; [2]
  Prozentsatz der Sterilität: 100,0%
  Prozentsatz des Ansetzens von Achänen bei freier Bestäubung: 82,9%

## O=C(O)CCCCS(=O)(=O)CCCCC(=O)O [Beispiel 76, δ, δ' -Sulfonyldivaleriansäure]
Sonnenblume; [2]
  Prozentsatz der Sterilität: 100,0%
  Prozentsatz des Ansetzens von Achänen bei freier Bestäubung: 71,6%

## CCCCC(CC)COC(=O)CCCCSCCCCC(=O)OCC(CC)CCCC (stereo not drawn) [Beispiel 77, Bis(2-äthylhexyläther) der δ, δ' -Thiodivaleriansäure]
Sonnenblume; [2]
  Prozentsatz der Sterilität: 100,0%
  Prozentsatz des Ansetzens von Achänen bei freier Bestäubung: 82,1%

## CCCCC(CC)COC(=O)CCCCSCCCCC(=O)OCC(CC)CCCC (stereo not drawn) [Beispiel 78, Bis(2-äthylhexyläther) der δ δ' --Thiodivaleriansäure]
Sonnenblume; [3]
  Prozentsatz der Sterilität: 100,0%
  Prozentsatz des Ansetzens von Achänen bei freier Bestäubung: 60,7%

## CCCCOC(=O)CCCCSCCCCC(=O)OCCCC [Beispiel 79, Bis(di--n-butyläther) der δ, δ' -Thiodivaleriansäure]
Sonnenblume; [3]
  Prozentsatz der Sterilität: 100,0%
  Prozentsatz des Ansetzens von Achänen bei freier Bestäubung: 62,7%

## CCCCC(CC)COC(=O)CCCCSCCCCC(=O)OCC(CC)CCCC (stereo not drawn) [Beispiel 80, Bis(2-äthylhexyläther) der δ, δ' -Thirodivaleriansäure]
Sonnenblume; [4]
  Prozentsatz der Sterilität: 100,0%
  Prozentsatz des Ansetzens von Achänen bei freier Bestäubung: 67,9%

## CCCCOC(=O)CCCCSCCCCC(=O)OCCCC [Beispiel 81, Bis(di-n-butyläther) der δ, δ' -Thiodivaleriansäure]
Sonnenblume; [4]
  Prozentsatz der Sterilität: 100,0%
  Prozentsatz des Ansetzens von Achänen bei freier Bestäubung: 59,3%

## CCCCC(CC)COC(=O)CCCCSCCCCC(=O)OCC(CC)CCCC (stereo not drawn) [Bis (2-äthylhexyläther) der δ, δ'-Thiodivaleriansäure]
Toxicity in animal test
  LD50: > 2000 mg/kg
